Here are results for 24 molecules from patent US4644055A, “Method for preparing specific inhibitors of virus-specified proteases” (priority 1984, dated 1987).

The subject of data set [1] is human rhinovirus type 1A. The class given is cell-based.
Data set [2] concerns human rhinovirus type 1A. Description: Plaque inhibition assay, rhinovirus. The class given is cell-based.
In a further data set the test system is poliovirus type 2. The class given is cell-based.
In data set [3] the test system is human poliomyelitisvirus type 2. The class given is cell-based, poliovirus type 2. Also on record: key to Comparative Experiments Involving Other Peptide Halomethyl Ketones: Activity: -: no activity; +/-: low activity; +: active at 100 μg/mL; ++: active at 50 μg/mL; +++: active at 10 μg/mL; ++++: active at <5 μg/mL.
Another data set deals with chymotrypsin (Bos taurus, UniProt P00766). The following applies: inhibitor concentration 600 μg/mL; Ito et al. 1972; cited from earlier work.
The test system of the next data set is poliovirus. The conditions noted are these: cited from earlier work.
For a further data set, the system named is echovirus-12. The conditions noted are these: Korant 1972; cited from earlier work.

Like-named read-outs stand apart in the source and are kept apart here. Starred links: 1 amine or outer side, 2 acyl side, 3 side chain; linkers in the order of their positions; H or OH if unused. *: point of attachment. code Z = not defined here; MeOSuc = COC(=O)CCC(=O)*; CH2 = C([*:1])[*:2]; CH2Cl = ClC*

As for “Z-Phe-Gly-Ala-LeuCH3 ({code Z}-FGAL-CH2; reading uncertain; also: printed as Z-Phe-Gly-Ala-LeuCH3)”, the “activity in the viral cleavage assay” value with human rhinovirus type 1A [1] (test concentration 100 μg/mL) is given as “demonstrated activity”; in data set [3] (50 μg/mL), “active”; in data set [3] (test concentration 100 μg/mL), “demonstrated activity”. The plaque reduction with human rhinovirus type 1A [2] (50 μg/mL in agar overlay, compared to control plates) is given as above 90%; in the data set with poliovirus type 2 it was above 90%.

With “Z-- Phe--Gly--Pro--LeuCH2 Cl ({code Z}-FGPL-CH2Cl; reading uncertain; also: printed as Z-- Phe--Gly--Pro--LeuCH2 Cl)”, in data set [3], the “Protease-Inhibiting Activity of Selected Peptide Halomethyl Ketones: Activity” value was “++ (key: -: no activity; +/-: low activity; +: active at 100 μg/mL; ++: active at 50 μg/mL; +++: active at 10 μg/mL; ++++: active at <5 μg/mL)”.

For “Z--Phe--Gly--Lys--LeuCH2 Cl ({code Z}-FGKL-CH2Cl; reading uncertain; also: printed as Z--Phe--Gly--Lys--LeuCH2 Cl)”, the “Comparative Experiments Involving Other Peptide Halomethyl Ketones: Activity” value in data set [3] is “+ (key: -: no activity; +/-: low activity; +: active at 100 μg/mL; ++: active at 50 μg/mL; +++: active at 10 μg/mL; ++++: active at <5 μg/mL)”.

“Z-Phe-Gly-Ser-LeuCH2 Cl ({code Z}-FGSL-CH2Cl; reading uncertain; also: printed as Z-Phe-Gly-Ser-LeuCH2 Cl) [Z--Phe--Gly--Ser--LeuCH2 Cl]”: in data set [3], the “Protease-Inhibiting Activity of Selected Peptide Halomethyl Ketones: Activity” value was “++ (key: -: no activity; +/-: low activity; +: active at 100 μg/mL; ++: active at 50 μg/mL; +++: active at 10 μg/mL; ++++: active at <5 μg/mL)”.

Regarding “MeOSuc-Phe-Gly-Leu-LeuCH3 (MeOSuc-FGLL-CH2; SMILES COC(=O)CCC(=O)N[C@@H](Cc1ccccc1)C(=O)NCC(=O)N[C@@H](CC(C)C)C(=O)N[C@@H](CC(C)C)C(C)=O)”, the “activity in the viral cleavage assay” value in data set [3] (50 μg/mL) is recorded as “active”.

Turning to “Z-Phe-Ser-Ala-LeuCH2 Cl ({code Z}-FSAL-CH2Cl; reading uncertain; also: printed as Z-Phe-Ser-Ala-LeuCH2 Cl) [Z--Phe--Ser--Ala--LeuCH2 Cl]”, the “Comparative Experiments Involving Other Peptide Halomethyl Ketones: Activity” value in data set [3] is on record as “+ (key: -: no activity; +/-: low activity; +: active at 100 μg/mL; ++: active at 50 μg/mL; +++: active at 10 μg/mL; ++++: active at <5 μg/mL)”.

“Z--Phe--Leu--Ala--LeuCH2 Cl ({code Z}-FLAL-CH2Cl; reading uncertain; also: printed as Z--Phe--Leu--Ala--LeuCH2 Cl)”: the “Protease-Inhibiting Activity of Selected Peptide Halomethyl Ketones: Activity” value in data set [3] is recorded as “++ (key: -: no activity; +/-: low activity; +: active at 100 μg/mL; ++: active at 50 μg/mL; +++: active at 10 μg/mL; ++++: active at <5 μg/mL)”.

“Z--Phe--Gly--Phe--LeuCH2 Cl ({code Z}-FGFL-CH2Cl; reading uncertain; also: printed as Z--Phe--Gly--Phe--LeuCH2 Cl)”: in data set [3], the “Protease-Inhibiting Activity of Selected Peptide Halomethyl Ketones: Activity” value is recorded as “++ (key: -: no activity; +/-: low activity; +: active at 100 μg/mL; ++: active at 50 μg/mL; +++: active at 10 μg/mL; ++++: active at <5 μg/mL)”.

“Z--Leu--Gly--Ala--LeuCH2 Cl ({code Z}-LGAL-CH2Cl; reading uncertain; also: printed as Z--Leu--Gly--Ala--LeuCH2 Cl)”: in data set [3], the “Protease-Inhibiting Activity of Selected Peptide Halomethyl Ketones: Activity” value is reported as “+++ (key: -: no activity; +/-: low activity; +: active at 100 μg/mL; ++: active at 50 μg/mL; +++: active at 10 μg/mL; ++++: active at <5 μg/mL)”.

For the molecule “Z-Phe-Gly-Leu-LeuCH3 [Z--Phe--Gly--Leu--LeuCH3]”, the “activity in the viral cleavage assay” value (in the data set with human rhinovirus type 1A [1]; in data set [3]) was “demonstrated activity” each time.

Regarding “Z-Phe-Gly-Ala-TyrCH2 Cl ({code Z}-FGAY-CH2Cl; reading uncertain; also: printed as Z-Phe-Gly-Ala-TyrCH2 Cl) [Z--Phe--Gly--Ala--TyrCH2 Cl]”, the “Protease-Inhibiting Activity of Selected Peptide Halomethyl Ketones: Activity” value in data set [3] is on record as “++ (key: -: no activity; +/-: low activity; +: active at 100 μg/mL; ++: active at 50 μg/mL; +++: active at 10 μg/mL; ++++: active at <5 μg/mL)”.

With “Z--Ala--Gly--Ala--LeuCH2 Cl ({code Z}-AGAL-CH2Cl; reading uncertain; also: printed as Z--Ala--Gly--Ala--LeuCH2 Cl)”, in data set [3], the “Comparative Experiments Involving Other Peptide Halomethyl Ketones: Activity” value is reported as “+/-”.

For the molecule Ac-Leu-Leu-PheCH3, at chymotrypsin, the inhibition of chymotrypsin entry is “no inhibition was observed”.

With `Cc1ccc(S(=O)(=O)N[C@@H](Cc2ccccc2)C(=O)CCl)cc1` [TPCK, tolylsulfonylphenylalanyl chloromethyl ketone], in the data set with poliovirus, the “inhibition of poliovirus protein processing / protease cleavage of poliovirus-specific polypeptides” value is recorded as “inhibition”. The “inhibition of echovirus-12 protein processing” value in the data set with echovirus-12 is “inhibition”.

Turning to “Z-Phe-Gly-Ala-ValCH2 Cl ({code Z}-FGAV-CH2Cl; reading uncertain; also: printed as Z-Phe-Gly-Ala-ValCH2 Cl) [Z--Phe--Gly--Ala--ValCH2 Cl]”, in data set [3], the “Protease-Inhibiting Activity of Selected Peptide Halomethyl Ketones: Activity” value is reported as “++ (key: -: no activity; +/-: low activity; +: active at 100 μg/mL; ++: active at 50 μg/mL; +++: active at 10 μg/mL; ++++: active at <5 μg/mL)”.

As for “Z-Phe-Gly-Ala-LeuCH2 Br ({code Z}-FGAL-CH2Br; reading uncertain; also: printed as Z-Phe-Gly-Ala-LeuCH2 Br) [Z--Phe--Gly--Ala--LeuCH2 Br]”, in data set [3], the “Protease-Inhibiting Activity of Selected Peptide Halomethyl Ketones: Activity” value is given as “+++ (key: -: no activity; +/-: low activity; +: active at 100 μg/mL; ++: active at 50 μg/mL; +++: active at 10 μg/mL; ++++: active at <5 μg/mL)”.

“Z-Phe-Gly-Leu-LeuCH2 Cl ({code Z}-FGLL-CH2Cl; reading uncertain; also: printed as Z-Phe-Gly-Leu-LeuCH2 Cl) [Z--Phe--Gly--Leu--LeuCH2 Cl]”: in the data set on human rhinovirus type 1A [2] (HeLa cells, agar overlay), the “Antiviral activity, as scored by 90% plaque reduction, noted at concentration” value worked out at 1 µg/mL. For the same molecule, in the data set on human HeLa-O cells, the “concentration at which cytotoxicity was first detected” value was “about 15 μg/mL”. Besides, the “Protease-Inhibiting Activity of Selected Peptide Halomethyl Ketones: Activity” value in data set [3] is reported as “++++ (key: -: no activity; +/-: low activity; +: active at 100 μg/mL; ++: active at 50 μg/mL; +++: active at 10 μg/mL; ++++: active at <5 μg/mL)”.

Consider “Z--Gln--Gly--Ala--LeuCH2 Cl ({code Z}-QGAL-CH2Cl; reading uncertain; also: printed as Z--Gln--Gly--Ala--LeuCH2 Cl)”, for which the “Comparative Experiments Involving Other Peptide Halomethyl Ketones: Activity” value in data set [3] was “+ (key: -: no activity; +/-: low activity; +: active at 100 μg/mL; ++: active at 50 μg/mL; +++: active at 10 μg/mL; ++++: active at <5 μg/mL)”.

Regarding “Z--Phe--Lys--Ala--LeuCH2 Cl ({code Z}-FKAL-CH2Cl; reading uncertain; also: printed as Z--Phe--Lys--Ala--LeuCH2 Cl)”, in data set [3], the “Comparative Experiments Involving Other Peptide Halomethyl Ketones: Activity” value was “+ (key: -: no activity; +/-: low activity; +: active at 100 μg/mL; ++: active at 50 μg/mL; +++: active at 10 μg/mL; ++++: active at <5 μg/mL)”.

With “Z-Phe-Gly-Ala-LeuCH2 Cl ({code Z}-FGAL-CH2Cl; reading uncertain; also: printed as Z-Phe-Gly-Ala-LeuCH2 Cl) [Z--Phe--Gly--Ala--LeuCH2 Cl]”, the “Protease-Inhibiting Activity of Selected Peptide Halomethyl Ketones: Activity” value in data set [3] is given as “+++ (key: -: no activity; +/-: low activity; +: active at 100 μg/mL; ++: active at 50 μg/mL; +++: active at 10 μg/mL; ++++: active at <5 μg/mL)”.

As for “Z--Phe--Phe--Ala--LeuCH2 Cl ({code Z}-FFAL-CH2Cl; reading uncertain; also: printed as Z--Phe--Phe--Ala--LeuCH2 Cl)”, the “Comparative Experiments Involving Other Peptide Halomethyl Ketones: Activity” value in data set [3] is “+/-”.

`Cc1ccc(S(=O)(=O)NC(CCCCN)C(=O)CCl)cc1` (stereo not drawn) [TLCK, tolylsulfonyllysyl chloromethyl ketone]: the “inhibition of poliovirus protein processing / protease cleavage of poliovirus-specific polypeptides” value with poliovirus is listed as “inhibition”. Besides, in the data set on echovirus-12, the “inhibition of echovirus-12 protein processing” value was “inhibition”.

Regarding “Z--Phe--Pro--Ala--LeuCH2 Cl ({code Z}-FPAL-CH2Cl; reading uncertain; also: printed as Z--Phe--Pro--Ala--LeuCH2 Cl)”, the “Comparative Experiments Involving Other Peptide Halomethyl Ketones: Activity” value in data set [3] was “+ (key: -: no activity; +/-: low activity; +: active at 100 μg/mL; ++: active at 50 μg/mL; +++: active at 10 μg/mL; ++++: active at <5 μg/mL)”.

On to “Z--Phe--Gly--Gly--LeuCH2 Cl ({code Z}-FGGL-CH2Cl; reading uncertain; also: printed as Z--Phe--Gly--Gly--LeuCH2 Cl)”, for which the “Protease-Inhibiting Activity of Selected Peptide Halomethyl Ketones: Activity” value in data set [3] is given as “+++ (key: -: no activity; +/-: low activity; +: active at 100 μg/mL; ++: active at 50 μg/mL; +++: active at 10 μg/mL; ++++: active at <5 μg/mL)”.
